Test results reported in the supplement of paper PMC6045584.
± gives the standard deviation of the averaged measurements.

Experiments:
[1] = compound: CCN(CC)CCCCNc1ncc2cc(-c3cc(OC)cc(OC)c3)c(NC(=O)NC(C)(C)C)nc2n1; experiment: surviving fraction relative to DMSO-only wells; higher = less growth inhibition; settings: exposure time: 5 days
Method in brief: (§1)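 Lines were retained only if, across three screens, replicate Pearson r was >0.7 and median Z' was >0.3. Viability was measured as CellTiter-Glo luminescence and reported as surviving fraction relative to the median of DMSO-only wells. Readings followed 10 minutes at room temperature, after log-phase tumour cells seeded at 250–500 per well in 384-well plates had been exposed, from 24 hours after seeding, continuously for five days to inhibitors at 0.5, 1, 5, 10, 50, 100, 500 and 1000 nM.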

2-METHOXYESTRADIOL = compound: COc1cc2c(cc1O)CC[C@@H]1[C@@H]2CC[C@]2(C)[C@@H](O)CC[C@@H]12 [2-METHOXYESTRADIOL]; experiment: as above; settings: exposure time: 5 days
Method in brief: as §1

Row | Test System | surviving fraction ([1]; 0.5 nM) | surviving fraction ([1]; 1 nM) | surviving fraction ([1]; 5 nM) | surviving fraction ([1]; 10 nM) | surviving fraction ([1]; 50 nM) | surviving fraction ([1]; 100 nM) | surviving fraction ([1]; 500 nM) | surviving fraction ([1]; 1000 nM) | surviving fraction (2-METHOXYESTRADIOL; 0.5 nM) | surviving fraction (2-METHOXYESTRADIOL; 1 nM) | surviving fraction (2-METHOXYESTRADIOL; 5 nM) | surviving fraction (2-METHOXYESTRADIOL; 10 nM) | surviving fraction (2-METHOXYESTRADIOL; 50 nM) | surviving fraction (2-METHOXYESTRADIOL; 100 nM) | surviving fraction (2-METHOXYESTRADIOL; 500 nM) | surviving fraction (2-METHOXYESTRADIOL; 1000 nM)
1 | 22RV1 PROSTATE | 1 ± 0.029 | 1.02 ± 0.048 | 0.964 ± 0.011 | 1.01 ± 0.013 | 0.997 ± 0.034 | 1.02 ± 0.044 | 1.04 ± 0.04 | 1.05 ± 0.036 | 1.01 ± 0.057 | 1.09 ± 0.17 | 1.04 ± 0.07 | 1.07 ± 0.15 | 1.03 ± 0.073 | 0.903 ± 0.16 | 0.791 ± 0.18 | 0.646 ± 0.068
2 | 93VU HEADNECK | 0.952 ± 0.063 | 0.975 ± 0.062 | 1.02 ± 0.1 | 1.03 ± 0.11 | 1.03 ± 0.095 | 0.884 ± 0.18 | 1.01 ± 0.085 | 0.949 ± 0.076 | 0.864 ± 0.13 | 0.829 ± 0.072 | 1.07 ± 0.096 | 1.14 ± 0.062 | 1.09 ± 0.058 | 0.921 ± 0.017 | 0.741 ± 0.049 | 0.788 ± 0.034
3 | 143B BONE | 0.941 ± 0.078 | 0.997 ± 0.026 | 0.954 ± 0.068 | 1.02 ± 0.032 | 1.01 ± 0.016 | 1.01 ± 0.061 | 0.97 ± 0.054 | 0.995 ± 0.038 | 1.04 ± 0.049 | 1.06 ± 0.054 | 1.1 ± 0.071 | 1.09 ± 0.073 | 1.08 ± 0.071 | 1.09 ± 0.046 | 0.536 ± 0.069 | 0.159 ± 0.016
4 | A549 LUNG | 0.975 ± 0.015 | 0.97 ± 0.049 | 0.949 ± 0.036 | 0.952 ± 0.042 | 0.963 ± 0.01 | 1.032 ± 0.0046 | 1.006 ± 0.0065 | 1.05 ± 0.061 | 0.991 ± 0.016 | 0.9623 ± 0.0067 | 0.983 ± 0.018 | 0.945 ± 0.021 | 1.02 ± 0.043 | 1.05 ± 0.015 | 0.992 ± 0.025 | 0.544 ± 0.028
5 | ASKA SYNOVIAL | 1.04 ± 0.044 | 1.14 ± 0.029 | 1.19 ± 0.046 | 1.09 ± 0.091 | 1.14 ± 0.046 | 1.18 ± 0.065 | 1.09 ± 0.086 | 0.992 ± 0.013 | 1.07 ± 0.086 | 1.08 ± 0.068 | 1.05 ± 0.054 | 1.07 ± 0.054 | 1.1 ± 0.049 | 1.03 ± 0.066 | 0.503 ± 0.039 | 0.353 ± 0.015
6 | BT20 BREAST | 1.17 ± 0.13 | 1.17 ± 0.065 | 1.09 ± 0.26 | 1.17 ± 0.09 | 1.17 ± 0.12 | 1.12 ± 0.029 | 1.53 ± 0.17 | 1.64 ± 0.057 | 1.08 ± 0.068 | 1.09 ± 0.062 | 1.07 ± 0.082 | 1.05 ± 0.076 | 1.24 ± 0.14 | 1.11 ± 0.067 | 1.13 ± 0.044 | 0.662 ± 0.048
7 | BT549 BREAST | 1.16 ± 0.13 | 1.16 ± 0.11 | 1.15 ± 0.11 | 1.19 ± 0.077 | 1.18 ± 0.17 | 1.04 ± 0.096 | 0.932 ± 0.059 | 0.843 ± 0.068 | 0.974 ± 0.087 | 1.05 ± 0.1 | 1.05 ± 0.12 | 1.02 ± 0.024 | 0.968 ± 0.17 | 1.08 ± 0.14 | 0.53 ± 0.092 | 0.106 ± 0.044
8 | C33A CERVIX | 0.832 ± 0.044 | 0.831 ± 0.077 | 0.921 ± 0.068 | 0.914 ± 0.1 | 0.968 ± 0.1 | 0.871 ± 0.12 | 0.828 ± 0.073 | 0.814 ± 0.065 | 0.689 ± 0.038 | 0.772 ± 0.04 | 0.918 ± 0.1 | 1.03 ± 0.055 | 0.965 ± 0.031 | 0.964 ± 0.055 | 0.482 ± 0.087 | 0.595 ± 0.028
